Key:
Experiment in all cases: relative viability (nuclei count vs DMSO), 5 days (fraction); higher = more cells survive
Crenolanib + Luminespib = compound: CC1(COc2ccc3c(c2)ncn3-c2ccc3cccc(N4CCC(N)CC4)c3n2)COC1 [Crenolanib] + CCNC(=O)c1noc(-c2cc(C(C)C)c(O)cc2O)c1-c1ccc(CN2CCOCC2)cc1 [Luminespib] (partner 0.01 µM)
Outline: (§1)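 A single step with final 0.05% Triton X-100, 1% formaldehyde and 1 ug/ml Hoechst fixed the cells and stained nuclei 5 days after treatment. Lung cancer cell lines in 1536-well plates had been treated by pin tool the day after seeding with one drug alone or a fixed anchor-drug dose plus five library-drug doses (not always all listed) in √10 steps, and nuclei were counted on 4× images. Relative viability is the ratio of nuclei in treated wells to nuclei in vehicle wells, taken as the median of duplicate plates.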

Crenolanib + Crizotinib = compound: CC1(COc2ccc3c(c2)ncn3-c2ccc3cccc(N4CCC(N)CC4)c3n2)COC1 [Crenolanib] + C[C@@H](Oc1cc(-c2cnn(C3CCNCC3)c2)cnc1N)c1c(Cl)ccc(F)c1Cl [Crizotinib] (partner 1 µM)
Outline: as §1

Crenolanib + Pemetrexed = compound: CC1(COc2ccc3c(c2)ncn3-c2ccc3cccc(N4CCC(N)CC4)c3n2)COC1 [Crenolanib] + Nc1nc2[nH]cc(CCc3ccc(C(=O)N[C@@H](CCC(=O)O)C(=O)O)cc3)c2c(=O)[nH]1 [Pemetrexed] (partner 0.2 µM)
Outline: as §1

Tivantinib + OSI-027 = compound: O=C1NC(=O)[C@@H](c2cn3c4c(cccc24)CCC3)[C@@H]1c1c[nH]c2ccccc12 [Tivantinib] + COc1cccc2cc(-c3nc([C@H]4CC[C@H](C(=O)O)CC4)n4ncnc(N)c34)[nH]c12 [OSI-027] (partner 0.5 µM)
Outline: as §1

Row | Cell Line | relative viability (Crenolanib + Luminespib; first compound 0.01 µM) | relative viability (Crenolanib + Luminespib; first compound 0.03162 µM) | relative viability (Crenolanib + Luminespib; first compound 0.1 µM) | relative viability (Crenolanib + Luminespib; first compound 0.3162 µM) | relative viability (Crenolanib + Luminespib; first compound 1 µM) | relative viability (Crenolanib + Crizotinib; first compound 0.01 µM) | relative viability (Crenolanib + Crizotinib; first compound 0.03162 µM) | relative viability (Crenolanib + Crizotinib; first compound 0.1 µM) | relative viability (Crenolanib + Crizotinib; first compound 0.3162 µM) | relative viability (Crenolanib + Crizotinib; first compound 1 µM) | relative viability (Crenolanib + Pemetrexed; first compound 0.01 µM) | relative viability (Crenolanib + Pemetrexed; first compound 0.03162 µM) | relative viability (Crenolanib + Pemetrexed; first compound 0.1 µM) | relative viability (Crenolanib + Pemetrexed; first compound 0.3162 µM) | relative viability (Crenolanib + Pemetrexed; first compound 1 µM) | relative viability (Tivantinib + OSI-027; first compound 0.01 µM) | relative viability (Tivantinib + OSI-027; first compound 0.03162 µM) | relative viability (Tivantinib + OSI-027; first compound 0.1 µM) | relative viability (Tivantinib + OSI-027; first compound 0.3162 µM)
1 | NCI-H1355 | 0.741 | 0.777 | 0.65 | 0.721 | 0.665 | 1.15 | 1.07 | 0.973 | 1.06 | 0.894 | 1.07 | 1.12 | 0.947 | 1.13 | 1.01 | 0.434 | 0.348 | 0.401 | 0.356
2 | NCI-H1437 | 1.18 | 1.17 | 1.1 | 1.21 | 0.911 | 1.02 | 1.04 | 1 | 1.04 | 0.897 | 0.336 | 0.3 | 0.297 | 0.352 | 0.336 | 0.911 | 0.795 | 0.811 | 0.886
3 | NCI-H1563 | 0.552 | 0.499 | 0.531 | 0.517 | 0.478 | 0.867 | 0.841 | 0.862 | 0.848 | 0.847 | 0.736 | 0.679 | 0.711 | 0.759 | 0.742 | 0.78 | 0.756 | 0.718 | 0.745
4 | NCI-H1650 | 0.193 | 0.231 | 0.203 | 0.213 | 0.178 | 1.08 | 0.917 | 0.916 | 1.1 | 0.696 | 0.438 | 0.395 | 0.38 | 0.371 | 0.459 | 0.681 | 0.535 | 0.634 | 0.532
5 | NCI-H1651 | 0.867 | 0.926 | 0.711 | 0.875 | 0.748 | 0.895 | 0.924 | 0.855 | 0.937 | 0.826 | 0.573 | 0.599 | 0.592 | 0.566 | 0.62 | 0.846 | 0.654 | 0.625 | 0.713
6 | NCI-H1666 | 1.07 | 1.11 | 0.991 | 0.977 | 1.03 | 1.05 | 0.917 | 1.01 | 0.885 | 1 | 0.886 | 0.855 | 0.855 | 0.921 | 0.831 | 0.83 | 0.743 | 0.876 | 0.687
7 | NCI-H1734 | 0.174 | 0.171 | 0.191 | 0.173 | 0.291 | 0.684 | 0.708 | 0.657 | 0.778 | 0.693 | 0.441 | 0.423 | 0.423 | 0.395 | 0.38 | 0.646 | 0.553 | 0.643 | 0.576
8 | NCI-H1755 | 0.416 | 0.656 | 0.667 | 0.43 | 0.397 | 0.835 | 0.932 | 0.832 | 0.917 | 0.854 | 0.468 | 0.43 | 0.416 | 0.499 | 0.453 | 0.775 | 0.662 | 0.69 | 0.791
9 | NCI-H1792 | 0.563 | 0.424 | 0.367 | 0.394 | 0.429 | 1.05 | 0.958 | 0.933 | 1.17 | 0.943 | 0.738 | 0.853 | 0.8 | 0.968 | 0.803 | 0.777 | 0.685 | 0.595 | 0.547
10 | NCI-H1915 | 0.787 | 0.875 | 0.757 | 0.857 | 0.803 | 0.9 | 0.896 | 0.868 | 0.856 | 0.855 | 0.536 | 0.481 | 0.511 | 0.528 | 0.531 | 0.626 | 0.543 | 0.648 | 0.715
11 | NCI-H1944 | 0.729 | 0.801 | 0.759 | 0.871 | 0.655 | 1.05 | 1.19 | 1.03 | 1.21 | 1.07 | 0.735 | 0.646 | 0.562 | 0.837 | 0.542 | 0.372 | 0.349 | 0.393 | 0.328
12 | NCI-H1975 | 0.337 | 0.22 | 0.182 | 0.269 | 0.185 | 1 | 1.15 | 0.978 | 1.03 | 0.892 | 0.306 | 0.316 | 0.289 | 0.284 | 0.312 | 0.751 | 0.752 | 0.611 | 0.691
13 | NCI-H1993 | 0.998 | 0.839 | 0.684 | 0.823 | 0.783 | 0.875 | 0.871 | 0.875 | 0.806 | 0.9 | 0.606 | 0.591 | 0.549 | 0.559 | 0.544 | 0.538 | 0.57 | 0.563 | 0.61
14 | NCI-H2009 | 1.04 | 1.08 | 1.06 | 1.11 | 0.982 | 1.07 | 1.01 | 1.01 | 1.06 | 0.815 | 1 | 1.06 | 1.07 | 0.966 | 0.847 | 0.677 | 0.529 | 0.61 | 0.713
15 | NCI-H2023 | 0.839 | 0.704 | 0.639 | 1 | 0.453 | 0.708 | 0.706 | 0.639 | 0.814 | 0.622 | 0.206 | 0.238 | 0.231 | 0.239 | 0.234 | 0.372 | 0.363 | 0.356 | 0.341
16 | NCI-H2085 | 0.478 | 0.43 | 0.407 | 0.481 | 0.421 | 0.942 | 0.993 | 0.902 | 0.804 | 0.845 |  | 0.88 | 0.878 | 0.936 | 0.949 | 0.773 | 0.582 | 0.851 | 0.412
17 | NCI-H2087 | 0.184 | 0.195 | 0.167 | 0.191 | 0.184 | 0.693 | 0.919 | 0.809 | 0.992 | 0.965 | 0.719 | 0.7 | 0.684 | 0.555 | 0.675 | 0.635 | 0.511 | 0.465 | 0.478
18 | NCI-H2126 | 0.922 | 0.958 | 0.869 | 0.857 | 0.588 | 1.05 | 1.04 | 0.978 | 1.09 | 1.02 | 0.725 | 0.678 | 0.694 | 0.715 | 0.605 | 0.639 | 0.63 | 0.658 | 0.549
19 | NCI-H2170 | 0.741 | 0.568 | 0.761 | 1.02 | 0.672 | 1.21 | 1.18 | 1.19 | 1.18 | 1.17 | 0.366 | 0.266 | 0.276 | 0.286 | 0.271 | 0.645 | 0.718 | 0.652 | 
20 | NCI-H2228 | 0.137 | 0.15 | 0.105 | 0.193 | 0.228 | 0.483 | 0.38 | 0.407 | 0.577 | 0.516 | 0.3 | 0.33 | 0.34 | 0.337 | 0.324 |  | 0.548 | 0.541 | 0.234
21 | NCI-H2347 | 0.44 |  |  | 0.556 | 0.353 | 0.934 | 0.624 | 0.506 | 0.59 | 0.72 | 0.4 | 0.425 | 0.397 | 0.447 | 0.436 | 0.48 | 0.386 | 0.418 | 0.475
22 | NCI-H2405 | 0.786 | 0.83 |  | 0.641 | 0.594 | 0.899 | 0.94 | 0.623 | 0.809 | 0.837 | 1.11 |  | 0.869 | 1.11 | 1.06 | 0.717 | 0.637 | 0.632 | 0.574
23 | NCI-H3122 | 0.0862 | 0.0824 | 0.0708 | 0.0964 | 0.0864 | 0.27 | 0.288 | 0.298 | 0.267 | 0.321 | 0.205 | 0.212 | 0.203 | 0.203 | 0.18 | 0.985 | 0.914 | 0.93 | 0.207
24 | PC-3 [JPC-3] | 0.806 | 0.761 | 0.676 | 0.742 | 0.71 | 0.975 | 0.958 | 0.907 | 1.05 | 0.991 | 1.11 |  | 1.01 | 1.21 | 0.889 | 0.841 | 0.724 | 0.716 | 0.48
25 | PC-14 | 0.126 |  | 0.154 | 0.118 | 0.146 | 0.902 | 0.93 | 0.825 | 0.966 | 1.03 | 0.137 | 0.127 | 0.16 | 0.133 | 0.143 | 0.942 | 0.784 | 0.755 | 0.598
26 | RERF-LC-KJ | 1.31 | 1.28 | 1.04 | 1.31 | 1.18 | 0.796 | 0.848 | 0.825 | 0.852 | 0.886 | 0.474 | 0.516 | 0.457 | 0.479 | 0.447 | 0.592 | 0.646 | 0.512 | 0.389
27 | SK-LU-1 | 0.205 | 0.246 | 0.217 | 0.208 | 0.211 | 1 | 0.968 | 0.644 | 0.876 | 0.85 | 0.943 | 1.03 | 0.892 | 1.11 | 0.966 | 0.364 | 0.342 | 0.381 | 0.363
28 | SK-MES-1 | 0.827 | 0.728 | 0.699 | 0.83 | 0.57 | 1 | 1 | 0.857 | 1.02 | 0.973 | 1.06 | 0.964 | 0.886 | 0.967 | 0.929 | 0.668 | 0.435 | 0.554 | 0.482
29 | SW 1573 | 0.833 | 0.283 | 0.152 | 0.54 | 0.16 | 0.748 | 0.886 | 0.795 | 0.834 | 0.884 | 0.784 | 0.801 | 0.719 | 0.942 | 0.832 | 0.636 | 0.612 | 0.562 | 0.556
30 | UMC-11 | 1.06 | 1.02 | 1.02 | 1.11 | 1.07 | 0.624 | 0.568 | 0.674 | 0.804 | 0.606 | 0.791 | 0.755 | 0.738 | 0.832 | 0.741 | 0.451 | 0.456 | 0.465 | 0.521

Reference: the supplement of paper PMC10307832
